The Kd is the constant that tells how readily two partners part at equilibrium.

Where a SMILES comes first, the peptide text is derived from it. Bridges are numbered along the chain shown (N, C = ends). [ ]: non-standard residue; d: D form. Ala(imidazo(1,2-a)pyr3yl) = N[C@@H](Cc1cnc2ccccn12)C(=O)O; Phe(3-COOH) = N[C@@H](Cc1cccc(C(=O)O)c1)C(=O)O; NMePhe(3-Cl) = CN[C@@H](Cc1cccc(Cl)c1)C(=O)O; NMeW = CN[C@@H](Cc1c[nH]c2ccccc12)C(=O)O; Phe(4-F) = N[C@@H](Cc1ccc(F)cc1)C(=O)O; NMeY = CN[C@@H](Cc1ccc(O)cc1)C(=O)O; 4Pal = N[C@@H](Cc1ccncc1)C(=O)O

transferrin receptor (hTfR), sequence (P02786 whole entry): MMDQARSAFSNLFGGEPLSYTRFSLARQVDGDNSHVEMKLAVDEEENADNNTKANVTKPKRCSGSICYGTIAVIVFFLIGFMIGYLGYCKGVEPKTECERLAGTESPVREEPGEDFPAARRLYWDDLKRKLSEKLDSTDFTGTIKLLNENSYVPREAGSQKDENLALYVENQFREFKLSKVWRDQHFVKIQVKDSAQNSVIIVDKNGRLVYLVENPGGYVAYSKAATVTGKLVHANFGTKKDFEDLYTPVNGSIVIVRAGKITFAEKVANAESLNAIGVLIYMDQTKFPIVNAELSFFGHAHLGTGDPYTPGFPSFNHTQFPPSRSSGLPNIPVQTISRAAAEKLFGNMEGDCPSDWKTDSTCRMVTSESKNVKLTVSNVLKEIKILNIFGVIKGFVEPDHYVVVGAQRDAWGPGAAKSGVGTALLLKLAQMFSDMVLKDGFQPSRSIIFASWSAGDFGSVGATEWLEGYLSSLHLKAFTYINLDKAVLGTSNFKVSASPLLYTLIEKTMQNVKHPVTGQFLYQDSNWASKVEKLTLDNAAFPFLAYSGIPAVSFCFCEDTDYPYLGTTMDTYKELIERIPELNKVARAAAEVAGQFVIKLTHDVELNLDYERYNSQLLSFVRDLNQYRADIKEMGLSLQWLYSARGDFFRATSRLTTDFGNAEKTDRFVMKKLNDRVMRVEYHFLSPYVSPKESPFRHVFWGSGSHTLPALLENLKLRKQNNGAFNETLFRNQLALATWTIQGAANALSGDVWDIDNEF

In one assay the target is transferrin receptor (hTfR) (Homo sapiens, UniProt P02786). As to the kind of experiment: Intermolecular interaction evaluation test between transferrin receptor (hTfR) and peptide by surface plasmon resonance (SPR). Type of assay: binding. Conditions: SPR, hTfR; class symbols A-D; read-out: KD. Summed up:
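hTfR captured on Ni-NTA chip then amine-coupled; peptides run single-cycle kinetics at 5–100 nM in 10 mM HEPES pH 8.0, 150 mM NaCl, 0.05% Tween 20, 0.1% BSA, 1.0% DMSO. KD from least-squares curve fitting of sensorgrams.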
Take `CC[C@H](C)[C@@H]1NC(=O)[C@H](Cc2ccc(OC)cc2)NC(=O)[C@H](Cc2ccc(O)cc2)NC(=O)[C@H](CC(N)=O)NC(=O)[C@H](Cc2c[nH]c3ccccc23)N(C)C(=O)[C@H](C(C)C)NC(=O)[C@H](Cc2ccncc2)N(C)C(=O)[C@H](C(C)C)NC(=O)[C@H](C)NC(=O)CSC[C@@H](C(N)=O)NC(=O)[C@H](Cc2ccc(O)cc2)N(C)C(=O)[C@H](Cc2ccccc2)NC(=O)[C@@H](CCCNC(=N)N)NC(=O)[C@H](CCCNC(=N)N)NC(=O)[C@H]([C@@H](C)CC)NC1=O` [compound 451]: the Kd lay within 100 to 1000 nM.
Same read-out and setting: next, `CC[C@H](C)[C@@H]1NC(=O)[C@H](Cc2ccc(OC)cc2)NC(=O)[C@H](Cc2ccc(O)cc2)NC(=O)[C@H](CC(N)=O)NC(=O)[C@H](Cc2c[nH]c3ccccc23)N(C)C(=O)[C@H](C(C)C)NC(=O)[C@H](Cc2cccc(C(=O)O)c2)N(C)C(=O)[C@H](C(C)C)NC(=O)[C@H](C)NC(=O)CSC[C@@H](C(N)=O)NC(=O)[C@H](Cc2ccc(O)cc2)N(C)C(=O)[C@H](Cc2ccccc2)NC(=O)[C@@H](CCCNC(=N)N)NC(=O)[C@H](CCCNC(=N)N)NC(=O)[C@H]([C@@H](C)CC)NC1=O` [compound 452]: 100 to 1000 nM; `CC[C@H](C)[C@@H]1NC(=O)[C@H](Cc2ccncc2)NC(=O)[C@H](Cc2ccc(O)cc2)NC(=O)[C@H](CC(N)=O)NC(=O)[C@H](Cc2c[nH]c3ccccc23)N(C)C(=O)[C@H](C(C)C)NC(=O)[C@H](Cc2cccc(Cl)c2)N(C)C(=O)[C@H](C(C)C)NC(=O)[C@H](C)NC(=O)CSC[C@@H](C(N)=O)NC(=O)[C@H](Cc2ccc(O)cc2)N(C)C(=O)[C@H](Cc2ccccc2)NC(=O)[C@@H](CCCNC(=N)N)NC(=O)[C@H](CCCNC(=N)N)NC(=O)[C@H]([C@@H](C)CC)NC1=O` [compound 455] ({CH2CO}-AV[NMePhe(3-Cl)]V[NMeW]NY[4Pal]IIR[dR]F[NMeY]C-NH2; thioether N-15): 1 to 100 nM.
Take `CC[C@H](C)[C@@H]1NC(=O)[C@H](Cc2cnc3ccccn23)NC(=O)[C@H](Cc2ccc(O)cc2)NC(=O)[C@H](CC(N)=O)NC(=O)[C@H](Cc2c[nH]c3ccccc23)N(C)C(=O)[C@H](C(C)C)NC(=O)[C@H](Cc2cccc(Cl)c2)N(C)C(=O)[C@H](C(C)C)NC(=O)[C@H](C)NC(=O)CSC[C@@H](C(N)=O)NC(=O)[C@H](Cc2ccc(O)cc2)N(C)C(=O)[C@H](Cc2ccccc2)NC(=O)[C@@H](CCCNC(=N)N)NC(=O)[C@H](CCCNC(=N)N)NC(=O)[C@H]([C@@H](C)CC)NC1=O` [compound 456] ({CH2CO}-AV[NMePhe(3-Cl)]V[NMeW]NY[Ala(imidazo(1,2-a)pyr3yl)]IIR[dR]F[NMeY]C-NH2; thioether N-15): the Kd fell in the range of 1 to 100 nM.
Same read-out and setting: next, `CC[C@H](C)[C@@H]1NC(=O)[C@H](Cc2cccc(C(=O)O)c2)NC(=O)[C@H](Cc2ccc(O)cc2)NC(=O)[C@H](CC(N)=O)NC(=O)[C@H](Cc2c[nH]c3ccccc23)N(C)C(=O)[C@H](C(C)C)NC(=O)[C@H](Cc2cccc(Cl)c2)N(C)C(=O)[C@H](C(C)C)NC(=O)[C@H](C)NC(=O)CSC[C@@H](C(N)=O)NC(=O)[C@H](Cc2ccc(O)cc2)N(C)C(=O)[C@H](Cc2ccccc2)NC(=O)[C@@H](CCCNC(=N)N)NC(=O)[C@H](CCCNC(=N)N)NC(=O)[C@H]([C@@H](C)CC)NC1=O` [compound 458] ({CH2CO}-AV[NMePhe(3-Cl)]V[NMeW]NY[Phe(3-COOH)]IIR[dR]F[NMeY]C-NH2; thioether N-15): 1 to 100 nM.
For the compound `CC[C@H](C)[C@@H]1NC(=O)[C@H](Cc2ccc(OC)cc2)NC(=O)[C@H](Cc2ccc(O)cc2)NC(=O)[C@H](CC(N)=O)NC(=O)[C@H](Cc2c[nH]c3ccccc23)N(C)C(=O)[C@H](C(C)C)NC(=O)[C@H](Cc2cccc(Cl)c2)N(C)C(=O)[C@H](C(C)C)NC(=O)[C@H](C)NC(=O)CSC[C@@H](C(N)=O)NC(=O)[C@H](Cc2ccc(O)cc2)N(C)C(=O)[C@H](Cc2cccnc2)NC(=O)[C@@H](CCCNC(=N)N)NC(=O)[C@H](CCCNC(=N)N)NC(=O)[C@H]([C@@H](C)CC)NC1=O` [compound 460], the Kd was in the range of 1 to 100 nM.
For the compound `CC[C@H](C)[C@@H]1NC(=O)[C@H](Cc2ccc(OC)cc2)NC(=O)[C@H](Cc2ccc(O)cc2)NC(=O)[C@H](CC(N)=O)NC(=O)[C@H](Cc2c[nH]c3ccccc23)N(C)C(=O)[C@H](C(C)C)NC(=O)[C@H](Cc2cccc(Cl)c2)N(C)C(=O)[C@H](C(C)C)NC(=O)[C@H](C)NC(=O)CSC[C@@H](C(N)=O)NC(=O)[C@H](Cc2ccc(O)cc2)N(C)C(=O)[C@H](Cc2cccc(C(=O)O)c2)NC(=O)[C@@H](CCCNC(=N)N)NC(=O)[C@H](CCCNC(=N)N)NC(=O)[C@H]([C@@H](C)CC)NC1=O` [compound 461], the Kd is 1 to 100 nM.
Regarding `CC[C@H](C)[C@@H]1NC(=O)[C@H](Cc2ccc(OC)cc2)NC(=O)[C@H](Cc2ccc(O)cc2)NC(=O)[C@H](CC(N)=O)NC(=O)[C@H](Cc2c[nH]c3ccc(Cl)cc23)NC(=O)[C@H](C(C)C)NC(=O)[C@H](Cc2cccc(Cl)c2)N(C)C(=O)[C@H](C(C)C)NC(=O)[C@H](C)NC(=O)CSC[C@@H](C(N)=O)NC(=O)[C@H](Cc2ccc(O)cc2)N(C)C(=O)[C@H](Cc2ccccc2)NC(=O)[C@@H](CCCNC(=N)N)NC(=O)[C@H](CCCNC(=N)N)NC(=O)[C@H]([C@@H](C)CC)NC1=O` [compound 464], the Kd was > 1000 nM.
On to `CC[C@H](C)[C@@H]1NC(=O)[C@H](Cc2ccc(F)cc2)NC(=O)[C@H](Cc2ccc(O)cc2)NC(=O)[C@H](CC(N)=O)NC(=O)[C@H](Cc2c[nH]c3ccccc23)N(C)C(=O)[C@H](C(C)C)NC(=O)[C@H](Cc2cccc(Cl)c2)N(C)C(=O)[C@H](C(C)C)NC(=O)[C@H](C)NC(=O)CSC[C@@H](C(N)=O)NC(=O)[C@H](Cc2ccc(O)cc2)N(C)C(=O)[C@H](Cc2ccccc2)NC(=O)[C@@H](CCCNC(=N)N)NC(=O)[C@H](CCCNC(=N)N)NC(=O)[C@H]([C@@H](C)CC)NC1=O` [compound 467] ({CH2CO}-AV[NMePhe(3-Cl)]V[NMeW]NY[Phe(4-F)]IIR[dR]F[NMeY]C-NH2; thioether N-15), for which the Kd was in the range of 1 to 100 nM.
As to `CC[C@H](C)[C@@H]1NC(=O)[C@H](Cc2ccc(O)cc2)NC(=O)[C@H](Cc2ccc(O)cc2)NC(=O)[C@H](CC(N)=O)NC(=O)[C@H](Cc2cn(CC(=O)O)c3ccccc23)NC(=O)[C@H](C(C)C)NC(=O)[C@H](Cc2ccccc2)N(C)C(=O)[C@H](C(C)C)NC(=O)[C@H](C)NC(=O)CSC[C@@H](C(N)=O)NC(=O)[C@H](Cc2ccc(O)cc2)N(C)C(=O)[C@H](Cc2ccc(O)cc2)NC(=O)[C@H](CCCNC(=N)N)NC(=O)C(C)(C)NC(=O)[C@H]([C@@H](C)CC)NC1=O` [compound 469], the Kd fell in the range of 1 to 100 nM.

The same assay, now with this note: surface plasmon resonance, peptide vs hTfR; read-out: KD value for hTfR by SPR (class symbol).
As to `CC[C@H](C)[C@@H]1NC(=O)[C@H](Cc2ccc(O)cc2)NC(=O)[C@H](Cc2ccc(O)cc2)NC(=O)[C@H](CC(N)=O)NC(=O)[C@H](Cc2c[nH]c3ccccc23)NC(=O)[C@H](C(C)C)NC(=O)[C@H](Cc2ccccc2)N(C)C(=O)[C@H](C(C)C)NC(=O)[C@H](C)NC(=O)CSC[C@@H](C(=O)NCC(=O)N[C@H](CCC(=O)O)C(=O)N[C@H](CCC(=O)O)C(=O)N[C@H](CCC(=O)O)C(=O)N[C@@H](CO)C(=O)N[C@@H](CO)C(=O)N[C@@H](CSCC(=O)NC)C(N)=O)NC(=O)[C@H](Cc2ccc(O)cc2)N(C)C(=O)[C@H](Cc2ccc(O)cc2)NC(=O)[C@H](CCCNC(=N)N)NC(=O)[C@H](CCCNC(=N)N)NC(=O)[C@H]([C@@H](C)CC)NC1=O` [compound 424], the Kd is 1 to 100 nM.
Regarding `CC[C@H](C)[C@@H]1NC(=O)[C@H](Cc2ccc(O)cc2)NC(=O)[C@H](Cc2ccc(O)cc2)NC(=O)[C@H](CC(N)=O)NC(=O)[C@H](Cc2c[nH]c3ccccc23)NC(=O)[C@H](C(C)C)NC(=O)[C@H](Cc2ccccc2)N(C)C(=O)[C@H](C(C)C)NC(=O)[C@H](C)NC(=O)CSC[C@@H](C(=O)NCC(=O)N[C@H](CCC(=O)O)C(=O)N[C@H](CCC(=O)O)C(=O)NCC(=O)N[C@@H](CO)C(=O)N[C@@H](CO)C(=O)N[C@@H](CSCC(=O)NC)C(N)=O)NC(=O)[C@H](Cc2ccc(O)cc2)N(C)C(=O)[C@H](Cc2ccc(O)cc2)NC(=O)[C@H](CCCNC(=N)N)NC(=O)[C@H](CCCNC(=N)N)NC(=O)[C@H]([C@@H](C)CC)NC1=O` [compound 425], the Kd lay within 1 to 100 nM.
On to `CC[C@H](C)[C@@H]1NC(=O)[C@H](Cc2ccc(O)cc2)NC(=O)[C@H](Cc2ccc(O)cc2)NC(=O)[C@H](CC(N)=O)NC(=O)[C@H](Cc2c[nH]c3ccccc23)NC(=O)[C@H](C(C)C)NC(=O)[C@H](Cc2ccccc2)N(C)C(=O)[C@H](C(C)C)NC(=O)[C@H](C)NC(=O)CSC[C@@H](C(=O)NCC(=O)NCC(=O)NCC(=O)NCC(=O)N[C@@H](CO)C(=O)N[C@@H](CO)C(=O)N[C@@H](CSCC(=O)NC)C(N)=O)NC(=O)[C@H](Cc2ccc(O)cc2)N(C)C(=O)[C@H](Cc2ccc(O)cc2)NC(=O)[C@H](CCCNC(=N)N)NC(=O)[C@H](CCCNC(=N)N)NC(=O)[C@H]([C@@H](C)CC)NC1=O` [compound 443], for which the dissociation constant (Kd) fell in the range of 1 to 100 nM.
Take `CC[C@H](C)[C@@H]1NC(=O)[C@H](Cc2ccc(O)cc2)NC(=O)[C@H](Cc2ccc(O)cc2)NC(=O)[C@H](CC(N)=O)NC(=O)[C@H](Cc2c[nH]c3ccccc23)NC(=O)[C@H](C(C)C)NC(=O)[C@H](Cc2ccccc2)N(C)C(=O)[C@H](C(C)C)NC(=O)[C@H](C)NC(=O)CSC[C@@H](C(=O)NCC(=O)N[C@H](CCC(=O)O)C(=O)N[C@H](CCC(=O)O)C(=O)N[C@H](CCC(=O)O)C(=O)NCC(=O)N[C@H](CCCCN)C(N)=O)NC(=O)[C@H](Cc2ccc(O)cc2)N(C)C(=O)[C@H](Cc2ccc(O)cc2)NC(=O)[C@H](CCCNC(=N)N)NC(=O)[C@H](CCCNC(=N)N)NC(=O)[C@H]([C@@H](C)CC)NC1=O` [compound 444]: the Kd was 1 to 100 nM.
On to `CC[C@H](C)[C@@H]1NC(=O)[C@H](Cc2ccc(O)cc2)NC(=O)[C@H](Cc2ccc(O)cc2)NC(=O)[C@H](CC(N)=O)NC(=O)[C@H](Cc2c[nH]c3ccccc23)NC(=O)[C@H](C(C)C)NC(=O)[C@H](Cc2ccccc2)N(C)C(=O)[C@H](C(C)C)NC(=O)[C@H](C)NC(=O)CSC[C@@H](C(=O)NCCOCCOCCOCCOCCC(=O)N[C@H](CCCCNC(=O)c2ccc(-c3c4ccc(=O)cc-4oc4cc(O)ccc34)c(C(=O)O)c2)C(N)=O)NC(=O)[C@H](Cc2ccc(O)cc2)N(C)C(=O)[C@H](Cc2ccc(O)cc2)NC(=O)[C@H](CCCNC(=N)N)NC(=O)[C@H](CCCNC(=N)N)NC(=O)[C@H]([C@@H](C)CC)NC1=O` [compound 446], for which the Kd is < 1 nM.

Values taken from patent US20230203098A1, “HUMAN TRANSFERRIN RECEPTOR BINDING PEPTIDE” (priority 2020, published 2023).
